Reference: ChEMBL document CHEMBL5316297, “Mechanistic Insight of Synthesized 1,4-Dihydropyridines as an Antidiabetic Sword against Reactive Oxygen Species” (J Med Chem, 2023)

Tests used:
[1] = Cytotoxicity against human THLE-2 cells assessed as cell growth inhibition at 10 uM relative to control; type: toxicity, cell-based; settings: read-out: GI
[2] = Cytotoxicity against human MCF-10F cells assessed as cell growth inhibition; type: toxicity, cell-based
[3] = Cytotoxicity against human THLE-2 cells assessed as cell growth inhibition; type: toxicity, cell-based
[4] = Cmax in Swiss albino mouse plasma at 0.2 mmol/Kg, po measured after 24 hrs by HPLC analysis; type: ADME, organism-based; set-up: time 24 hrs, dose 0.2 mmol/Kg, route po
[5] = system: Mus musculus; experiment: Antioxidant activity against high fat diet-STZ-induced diabetic Swiss albino mouse model assessed as serum MDA level at 0.2 mmol/Kg/day, po administered for 14 days (reference value: 8.70+/- 0.09 nmol/ml); type: functional; settings: time 14 day
[6] = Cytotoxicity against human MRC5 cells assessed as cell growth inhibition at 10 uM relative to control; type: toxicity, cell-based; settings: read-out: GI
[7] = system: Mus musculus; experiment: Antidiabetic activity against high fat diet-STZ-induced diabetic Swiss albino mouse model assessed as serum insulin level at 0.2 mmol/Kg/day, po administered for 14 days by ELISA method (reference value: 16.37 +/- 0.62 uU/ml); type: functional; settings: time 14 day
[8] = system: INS1; experiment: Induction of rat INS1 cells regeneration incubated for 24 hrs by CCK8 assay; type: functional, cell-based
[9] = Cytotoxicity against human WPE1-NA22 cells assessed as cell growth inhibition; type: toxicity, cell-based
[10] = Acute toxicity in Swiss albino mouse assessed as effect on behavioural change up to 2000 mg/kg, po administered for 14 days; type: organism-based; settings: in vivo, 336 h, time 14 day
[11] = Cytotoxicity against HEK293 cells assessed as cell growth inhibition; type: toxicity, cell-based; settings: human
[12] = target: Dipeptidyl peptidase 4 (Homo sapiens, UniProt P27487); experiment: Inhibition of DPP-4 (unknown origin) incubated for 30 mins in presence of substrate by fluorescence based analysis
[13] = system: INS1; experiment: Induction of apoptosis in rat INS1 cells assessed as necrotic cells at 1 uM incubated for 36 hrs by Annexin V-FITC/ propidium iodide staining based flow cytometry analysis (reference value: 1.15%); type: functional
[14] = target: Alpha glucosidase (Homo sapiens, UniProt O43451+P10253+P14410+Q2M2H8); experiment: Inhibition of alpha glucosidase (unknown origin) measured after 60 mins; type: protein assay
[15] = Cytotoxicity against human ECT1/E6E7 cells assessed as cell growth inhibition at 10 uM relative to control; type: toxicity, cell-based; settings: read-out: GI
[16] = Cytotoxicity against human BJ cells assessed as cell growth inhibition; type: toxicity, cell-based
[17] = system: Mus musculus; experiment: Antidiabetic activity against high fat diet-STZ-induced diabetic Swiss albino mouse model assessed as reduction in blood glucose level at 0.2 mmol/Kg/day, po administered for 14 days relative to glimepiride; type: functional; set-up: scale not given: the % may be the effect or the level left; settings: time 14 day
[18] = Toxicity in high fat diet-STZ-induced diabetic Swiss albino mouse model assessed as changes in body weight at 0.2 mmol/Kg/day, po administered for 14 days (reference value: 26.6 to 27.8 g); type: organism-based; settings: in vivo, 336 h, time 14 day
[19] = system: INS1; experiment: Induction of apoptosis in rat INS1 cells assessed as early apoptotic cells at 1 uM incubated for 36 hrs by Annexin V-FITC/ propidium iodide staining based flow cytometry analysis (reference value: 0.34%); type: functional
[20] = Cytotoxicity against human ECT1/E6E7 cells assessed as cell growth inhibition; type: toxicity, cell-based
[21] = system: Mus musculus; experiment: Antioxidant activity against high fat diet-STZ-induced diabetic Swiss albino mouse model assessed as serum SOD level at 0.2 mmol/Kg/day, po administered for 14 days (reference value: 273.01+/- 6.23 U/ml); type: functional; settings: time 14 day
[22] = Cytotoxicity against human BJ cells assessed as cell growth inhibition at 10 uM relative to control; type: toxicity, cell-based; settings: read-out: GI
[23] = Acute toxicity in Swiss albino mouse assessed as toxic symptoms up to 2000 mg/kg, po administered for 14 days; type: organism-based; settings: in vivo, 336 h, time 14 day
[24] = system: Mus musculus; experiment: Antidiabetic activity against high fat diet-STZ-induced diabetic Swiss albino mouse model assessed as reduction in blood glucose level at 0.2 mmol/Kg/day, po administered for 14 days; type: functional; settings: time 14 day
[25] = system: Mus musculus; experiment: Antidiabetic activity against high fat diet-STZ-induced diabetic Swiss albino mouse model assessed as reduction in blood glucose level at 0.2 mmol/Kg/day, po administered for 14 days relative to control; type: functional; set-up: scale not given: the % may be the effect or the level left; settings: time 14 day

Chain of Dipeptidyl peptidase 4 (P27487 whole entry): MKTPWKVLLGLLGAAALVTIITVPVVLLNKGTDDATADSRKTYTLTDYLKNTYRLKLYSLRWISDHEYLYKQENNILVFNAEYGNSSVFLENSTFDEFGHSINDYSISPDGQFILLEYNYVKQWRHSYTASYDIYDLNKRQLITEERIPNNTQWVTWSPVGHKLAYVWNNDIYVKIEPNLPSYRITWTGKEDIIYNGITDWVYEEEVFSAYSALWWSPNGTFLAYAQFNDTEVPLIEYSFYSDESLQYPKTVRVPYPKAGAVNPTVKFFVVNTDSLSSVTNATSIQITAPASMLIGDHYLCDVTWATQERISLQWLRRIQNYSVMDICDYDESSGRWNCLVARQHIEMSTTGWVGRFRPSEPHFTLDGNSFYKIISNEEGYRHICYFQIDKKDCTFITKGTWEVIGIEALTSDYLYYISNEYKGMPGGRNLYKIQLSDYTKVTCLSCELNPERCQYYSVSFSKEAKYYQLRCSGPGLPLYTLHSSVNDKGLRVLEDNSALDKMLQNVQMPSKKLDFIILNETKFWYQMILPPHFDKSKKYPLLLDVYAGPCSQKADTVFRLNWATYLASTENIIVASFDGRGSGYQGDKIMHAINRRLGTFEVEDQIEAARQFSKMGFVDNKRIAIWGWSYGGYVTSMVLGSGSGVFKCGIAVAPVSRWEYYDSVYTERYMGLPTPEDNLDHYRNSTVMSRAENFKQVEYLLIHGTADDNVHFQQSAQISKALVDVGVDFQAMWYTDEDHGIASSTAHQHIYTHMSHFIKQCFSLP

Question: Which inhibition at 10 µM [1] does the source give for CCOC(=O)C1=C(C)NC(C)=C(C(=O)OCC)C1c1cccc2c1OCO2 here?
Answer: 18.3%

Question: What about the GI50 [2] of the same molecule?
Answer: 171 µM

Question: And the GI50 [3]?
Answer: 67.8 µM

Question: What about the Cmax [4] of the same molecule?
Answer: 10.1 µM

Question: What about the Activity [5] of the same molecule?
Answer: 8.61 nmol/mL

Question: And the inhibition at 10 µM [6]?
Answer: 18.6%

Question: What about the Activity [7] of the same molecule?
Answer: 16.31 uU/ml

Question: And the Activity [8]?
Answer: Dose-Dependent Effect

Question: And the GI50 [9]?
Answer: 24.9 µM

Question: And the Activity [10]?
Answer: Non-Toxic

Question: And the GI50 [11]?
Answer: 19.7 µM

Question: What about the IC50 [12] of the same molecule?
Answer: 280 µM

Question: And the Activity [13]?
Answer: 1.46%

Question: And the IC50 [14]?
Answer: 4.48 µM

Question: And the inhibition at 10 µM [15]?
Answer: 18.9%

Question: What about the GI50 [16] of the same molecule?
Answer: 15.2 µM

Question: What about the Activity [17] of the same molecule?
Answer: 218%

Question: And the Activity [18]?
Answer: 26.9 g

Question: And the Activity [19]?
Answer: 0.27%

Question: And the GI50 [20]?
Answer: 3.74 µM

Question: And the Activity [21]?
Answer: 236.14 U/ml

Question: What about the inhibition at 10 µM [22] of the same molecule?
Answer: 34.5%

Question: And the Activity [23]?
Answer: Non-Toxic

Question: And the Activity [24]?
Answer: 80.6 mg/dL

Question: And the Activity [25]?
Answer: 72.97%
